The values below come from the NIST ThermoML archive (doi:10.1016/j.fluid.2013.10.012).

A short description of series [1]: refractive index (Na D-line) (dimensionless). The settings on record: 298.15 K; 101.33 kPa; Liquid; Standard Abbe refractometry.
For series [2] the following is noted: Liquid; for mass density: 298.15 K, 101.33 kPa, Vibrating tube method; for vapor or sublimation pressure: Ebulliometric method (Recirculating still).

± gives the expanded uncertainty stated by the source.

In the case of `Cc1ccc(C)cc1` [1,4-dimethylbenzene], the refractive index in series [1] turned out to be 1.4931 ± 0.0007. Besides, the mass density in series [2] was 856.71 ± 1 kg/m3. In addition, the “vapor or sublimation pressure” value in series [2] (342 K) was 10 ± 0.15 kPa.
For `Cc1ccccc1C` [1,2-dimethylbenzene], the refractive index in series [1] amounted to 1.5031 ± 0.0007. For the same molecule, the mass density in series [2] was 875.5 ± 1 kg/m3. The “vapor or sublimation pressure” value in series [2] (347.2 K) was 10 ± 0.15 kPa.
Take `CCCCCCCCCCC` [undecane]: the refractive index in series [1] was found to be 1.4152 ± 0.0007. Besides, in series [2], the mass density is reported as 736.85 ± 1 kg/m3. The “vapor or sublimation pressure” value in series [2] (393.4 K) turned out to be 10 ± 0.15 kPa.
Consider `Cc1cccc(C)c1` [1,3-dimethylbenzene], for which the refractive index in series [1] was found to be 1.4946 ± 0.0007. Besides, in series [2], the mass density is reported as 859.95 ± 1 kg/m3. The “vapor or sublimation pressure” value in series [2] (342.8 K) came to 10 ± 0.15 kPa.
